Reference: patent US20210299150A1, “AP39 IMPACT ON MITOCHONDRIA, METABOLISM, GENE TRANSCRIPTION REGULATION, CARDIOTOXICITY PROTECTION AND CANCER TREATMENT” (priority 2020, published 2021)

Columns and labels:
hiPSC-CMs = assay: DIC in hiPSC-CMs (Annexin V, MitoSox Red); assay type: cell-based, human
H9C2 cells [1] = assay: Mitochondrial H2S levels (AzMAC) and morphology (mitotracker Red) in H9C2 cells; assay type: cell-based, Rat
From the text: Note that white arrow heads and yellow arrows compare and contrast no-H2S: fusion and H2S-presence: fission scenarios in the same image AP39 treatment lane.
Mitochondrial fission was correlated with H2S levels. To investigate the impact of Dox on mitochondrial biogenesis and mitochondrial H2S levels, H9C2 cells were used in combination with H2S sensitive dye AzMAC and mitotracker Red dye as reported previously^8. […] Further, H2S levels (yellow arrows) highly correlated with a dotted appearance of mitochondria, implying that H2S causes mitochondrial fission, which is a prerequisite for eliminating damaged mitochondria^49.

AMPK, Opa1 = assay: Western blot of AMPK activation and Opa1 isoforms; assay type: cell-based; conditions: after AP39 treatment
From the text: AP39 enhanced AMPK activation and produced shorter isoform of Opa1, i.e. no longer isoform of Opa1. Note AMPK substrate ACC phosphorylation
Mitochondrial energy efficiency is regulated through accumulation of the shorter form of Opa1 after AP39 treatment. […] Thus, AP39 treatment led to mitochondrial fission, better quality control through increased mitophagy (increased AMPK activation) and energetic efficiency (short form of Opa1), which were all needed to eliminate Dox damaged mitochondria and to halt the functional decline. Apart from its role in mitophagy and quality control, AMPK activation also induces transcription of nuclear encoded mitochondrial resident proteins.

[2] = system: SK-N-BE(2) neuroblastoma cell line; assay: Cell viability (images, MTT) of SK-N-BE(2) neuroblastoma cell line; assay type: cell-based, human
Protocol: (§1) Methods for cell viability: Cells were plated in 96 wells/6 wells cell culture plates. After 24 hrs of plating, the treatments (added in the growth medium) were conducted. The following assays were performed after 24 hrs of the treatments (day 2). (FIGS. 15A, 17-20, 24-27)
(§2) MTT assay methods. For the MTT assay, […] of 5 mg/ml MTT-tetrazolium salts in PBS was added to each well containing the growth medium. After 3 hours of incubation, the medium was removed and the formazan crystals were dissolved by adding DMSO. The absorption of the formazan solution was measured using a spectrophotometer at a wavelength of 570 nm. FIGS. 15B, 21-22.
The SK-N-BE(2) neuroblastoma cell line was exposed to control, AP39 (AP) at 40 or 60 μM, Doxorubicin at 2.5 or 20 μM, thiolactate at 10 mM, AP39 and Doxorubicin, AP39 and thiolactate, or Doxorubicin and Thiolactate. […] FIGS. 17, 21, 24-25.

[3] = 13C-glucose isotope tracing and GC-MS metabolite quantification; assay type: cell-based
Protocol: Stable isotope (13C glucose) tracer studies. Heatmap.
To this end, 13C-glucose flux/isotope tracing and quantified metabolites through GC-MS were examined at 16 hrs and 24 hrs after the treatments. Glucose, glutamine and lactate were also measured in supernatants at these time points. […] With the exception of glycolytic metabolites, the remaining metabolic pathways (poor labeling) were non-operational after Dox treatment (FIG. 10A).
When considered AP39-mediated activation of AMPK, H2S is selectively halting energy consuming anabolic pathways, such as protein synthesis (also, lipid, AMPK inhibits […], a rate limiting lipid synthesizing enzyme, FIGS. 7A and B), as observed before^41, thus leading to accumulation of amino acids and is enhancing TCA cycle through AMPK activation. The net result is better energy management with AP39/H2S treatment.

MCF7 breast cancer cells = assay: Cell viability (MTT, crystal violet) of MCF7 breast cancer cells; assay type: cell-based
Protocol: as §1, §2
(§3) Crystal Violet (CV) assay. For the CV Staining assay, cells were stained with 0.5% crystal violet in 30% ethanol for 10 minutes at room temperature after removal of the medium. The cells were lysed in a 1% SDS (sodium dodecyl sulfate) solution. The absorbance of the solution was measured using a spectrophotometer at a wavelength of 595 nm. FIG. 27.
MCF7 breast cancer cells were exposed to control, AP39 (AP) at 40 or 60 μM, Doxorubicin at 2.5 or 20 μM, thiolactate at 10 mM, AP39 and Doxorubicin, AP39 and thiolactate, or Doxorubicin and Thiolactate. […] FIGS. 26-27.

H9C2 cells [4] = assay: Crystal violet staining of H9C2 cells, Dox toxicity; assay type: cell-based, Rat
Protocol: AP39 treatment also ameliorated Dox toxicity in a model of Rat cardiomyoblast cell line, H9C2. […] There was a narrow window of protection, as 30 μM and 50 μm doses were not as strong as the 40 μM dose (FIGS. 5A and B) in conferring protection. […] Note that Dox caused an apoptotic phenotype in correlation with ROS levels (FIG. 5F, Dox lane). This in vitro AP39 protection is modest when compared to the in vivo scenario. This difference may be due to rapid clearance of toxic metabolites (for instance, higher lactate production, FIG. 10D) and better oxygen supply (AP39 stimulated OCR, FIG. 7C) in vivo and lack of such sophistication in vitro.
as §3

[5] = system: Myc/Max-regulated transcripts; assay: RNAseq analysis in H9C2 cell line; assay type: cell-based, Rat
Protocol: The coverage among groups are indicated.
Next, to interrogate mechanisms of AP39 protection against DIC, RNAseq analysis was performed. There was sufficient coverage of the whole transcriptome among the groups (FIG. 8A).

DIC in mouse models = assay: Dox-induced cardiotoxicity (DIC) in mouse models: heart weight, echocardiography, histology; assay type: in vivo
Protocol: AP39 treatment ameliorated DIC in mouse models in a dose dependent manner. DIC was induced by giving a single dose of Dox i.p. (FIG. 3A) as reported before^48. AP39 was given for six consecutive days starting with Dox treatment. two different doses of AP39 were tested.
AP39 ameliorated cardiac fibrosis in a dose dependent manner. […] It is possible that lower doses of AP39 might have induced favorable metabolic changes which are enough to improve heart function but not sufficient to protect from cardiac cell death after Dox. These findings needs to be confirmed in a larger study.

[6] = AP39 40 or 60 μM, thiolactate 10 mM, 24 hrs
[7] = combination with Doxorubicin 2.5 μM

Which “DIC in hiPSC-CMs” value (hiPSC-CMs; 4 μM AP39 with 7.5 μM Dox, 48 hrs) does the source give for `O=C(CCCCCCCCC[P+](c1ccccc1)(c1ccccc1)c1ccccc1)Oc1ccc(-c2cc(=S)ss2)cc1.[Br-]` [AP39] here?
Its value is “attenuated DIC”.

What about the “tolerance of hiPSC-CMs to AP39” value (hiPSC-CMs; 40 μM AP39, compared with H9C2 cells) of the same molecule?
Its value is “greater susceptibility”.

And the “level of apoptosis (Annexin V) and mitochondrial ROS (MitoSox Red)” value (hiPSC-CMs; hiPSC-CMs, AP39 with Dox)?
The value was “attenuated with AP39 treatment”.

And the Dox-mediated mitochondrial fusion (H9C2 cells [1]; H9C2, AP39 with Dox)?
The Dox-mediated mitochondrial fusion was “reversed after AP39 treatment”.

What about the “mitochondrial H2S levels (AzMAC)” value (H9C2 cells [1]; H9C2, single agent vs control) of the same molecule?
The value was “H2S production enhancement”.

What about the “mitochondrial morphology (fission / fusion)” value (H9C2 cells [1]; H9C2, single agent vs control) of the same molecule?
Its value is “increased mitochondrial fission”.

And the AMPK activation (AMPK, Opa1)?
The AMPK activation was “potent AMPK activation”.

What about the “Opa1 isoforms (Opa1-S, Opa1-L)” value (AMPK, Opa1) of the same molecule?
Its value is “elevated amounts of the short form of Opa1 (Opa1-S) at the expense of long form (Opa1-L)”.

And the “cell killing, agent alone” value [2, 6]?
The value was “able to kill SK-N-BE(2) cells”.

And the “potency of low doses of Doxorubicin” value [2, 7]?
The value was “able to increase the potency of low doses of Doxorubicin”.

And the “reduction of Dox IC value by AP39” value ([2]; vs original IC70)?
The value was roughly 8 fold.

What about the “Serine and glycine 13C labeling” value ([3]; 16 hrs and 24 hrs) of the same molecule?
The value was “suppressed”.

And the “accumulation of TCA metabolites during Dox treatment” value ([3]; AP39 with Dox)?
Its value is “attenuated accumulation of TCA metabolites”.

What about the “amino acid accumulations during Dox treatment” value ([3]; AP39 with Dox) of the same molecule?
The value was “not effective in preventing many amino acid accumulations”.

What about the “13C labeling of TCA cycle metabolites (citrate, malate, alpha-ketoglutarate, fumarate)” value ([3]; AP39 with or without Dox, 16 hrs and 24 hrs) of the same molecule?
The value was “highly labeled”.

What about the “cell killing, agent alone” value (MCF7 breast cancer cells; [6]) of the same molecule?
The value was “able to kill breast cancer cells”.

And the “potency of low doses of Doxorubicin” value (MCF7 breast cancer cells; [7])?
The value was “able to increase the potency of low doses of Doxorubicin”.

What about the “protection against Dox toxicity, crystal violet staining” value (H9C2 cells [4]; H9C2, AP39 with Dox) of the same molecule?
Its value is “significant protection”.

And the “AP39 dose conferring strongest protection (30 and 50 not as strong)” value (H9C2 cells [4]; H9C2, crystal violet, with Dox)?
The value was 40 µM.

What about the “abnormal transcriptional changes induced after Dox treatment, global level (RNAseq)” value ([5]; H9C2, AP39+Dox) of the same molecule?
The value was “significantly reversed abnormal transcriptional changes”.

What about the Myc transcription ([5]; H9C2, AP39 with Dox) of the same molecule?
The Myc transcription was “restored Myc transcription”.

And the “heart weight decline seen during Dox treatment” value (DIC in mouse models; AP39 higher dose 0.642 mg/kg, six consecutive days, single dose of Dox i.p.)?
The value was “effective in countering heart weight decline”.

What about the “left ventricular dysfunction (echocardiography)” value (DIC in mouse models; both doses of AP39, six consecutive days, single dose of Dox i.p.) of the same molecule?
Its value is “effective in ameliorating left ventricular dysfunction”.

And the “Dox induced fibrosis and cell infiltration (histological sections)” value (DIC in mouse models; higher AP39 dose)?
The value was “prevented Dox induced fibrosis and cell infiltration”.

And the “cardiac pathology (fibrosis, cell infiltration)” value (DIC in mouse models; lower AP39 dose)?
Its value is “not cardiac pathology”.
